Measurements from patent US10167262B2, “Herbicidal substituted 3-arylpyrazoles” (FMC CORPORATION, priority 2014, dated 2019).
Where “and” joins values, the source holds several entries; their conditions need not be identical. Identical values can stand only once.

Experiments:
Assay type in all cases: in vivo
[1] = system: palmer pigweed (AMAPA, Amaranthus palmeri); test: Test H postemergence mixture test of compound 39 with commercial herbicides, observed and Colby expected effect 0-100; conditions: commercial herbicide alone, 14 days after treatment
Excerpt: (§1) This test evaluated the effect of mixtures of compound 39 with three commercial herbicides on five plant species. Seeds of plant species selected from corn (ZEAMD, Zea mays), soybean (GLXMA, Glycine max), palmer pigweed (AMAPA, Amaranthus palmeri), waterhemp (common waterhemp, AMATA, Amaranthus rudis), and Kochia (KCHSC, Kochia scoparia) were planted in pots containing Redi-Earth® planting medium (Scotts Company, 14111 Scottslawn Road, Marysville, Ohio 43041) comprising spaghnum peat moss, vermiculite, wetting agent and starter nutrients and treated with postemergence applications of test chemicals formulated in a non-phytotoxic solvent mixture which included a surfactant and applied using a volume of 299 L/ha. Each treatment was replicated four times. Treated plants and controls were maintained in a greenhouse using supplemental lighting to maintain a photoperiod of about 16 h; daytime and nighttime temperatures were about 24-30° C. and 19-21° C., respectively. Nutrients were applied using a balanced fertilizer applied through the watering system. At 14 days after treatment, all species were compared to controls and visually evaluated. Plant response ratings were calculated as the mean of the four replicates, are summarized in Tables H1 through H6, and are based on a scale of 0 to 100 where 0 is no effect and 100 is complete control. A dash (-) response means no test result.
(§2) Colby's Equation was used to determine the herbicidal effects expected from the mixtures. Colby's Equation (Colby, S. R. “Calculating Synergistic and Antagonistic Responses of Herbicide Combinations,” Weeds, 15(1), pp 20-22 (1967)) calculates the expected additive effect of herbicidal mixtures and for two active ingredients is of the form: Pa+b=Pa+Pb−(PaPb/100) • where • Pa+b is the percentage effect of the mixture expected from additive contribution of the individual components: • Pa is the observed percentage effect of the first active ingredient at the same use rate as in the mixture, and • Pb is the observed percentage effect of the second active ingredient at the same use rate as in the mixture. In the following Tables, rates are shown in grams of active ingredient per hectare (g a.i./ha); “Obsd.” is the observed effect. “Exp.” is the expected effect calculated from Colby's Equation.

corn (ZEAMD, Zea mays) = test: as above; conditions: commercial herbicide alone, 14 days after treatment
Excerpt: as §1, §2

[2] = system: waterhemp (common waterhemp, AMATA, Amaranthus rudis); test: as above; conditions: commercial herbicide alone, 14 days after treatment
Excerpt: as §1, §2

[3] = system: soybean (GLXMA, Glycine max); test: as above; conditions: commercial herbicide alone, 14 days after treatment
Excerpt: as §1, §2

[4] = system: Kochia (KCHSC, Kochia scoparia); test: as above; conditions: commercial herbicide alone, 14 days after treatment
Excerpt: as §1, §2

[5] = system: sedge, umbrella (small-flower umbrella sedge, Cyperus difformis); test: Test B flooded paddy test, plant response rating 0-100; conditions: Flood, 250 g ai/ha; scale 0 to 100 (0 no effect, 100 complete control); 13 to 15 days
Method in brief: (§3)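 Visual injury ratings against untreated controls, taken 13 to 15 days after compound was added to paddy water standing 3 cm above the soil.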

[6] = system: ducksalad (Heteranthera limosa); test: as above; conditions: Flood, 250 g ai/ha; scale 0 to 100 (0 no effect, 100 complete control); 13 to 15 days
Method in brief: as §3

rice (Oryza sativa) = test: as above; conditions: Flood, 250 g ai/ha; scale 0 to 100 (0 no effect, 100 complete control); 13 to 15 days
Method in brief: as §3

[7] = system: barnyardgrass (Echinochloa crus-galli); test: as above; conditions: Flood, 250 g ai/ha; scale 0 to 100 (0 no effect, 100 complete control); 13 to 15 days
Method in brief: as §3

[8] = system: pigweed (Amaranthus retroflexus); test: Test A pre-/postemergence greenhouse herbicide test, visual injury rating 0-100; conditions: 1000 g ai/ha
Method in brief: (§4)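 Pre + post at same time; soil = loam/sand. Post stage 1–2 leaf, 2–10 cm. Formulation: non-phytotoxic solvent mix w/ surfactant. Greenhouse ~10 d, visual rating vs untreated, 0 (no effect)–100 (complete control).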

[9] = system: giant foxtail (Setaria faberii); test: as above; conditions: 1000 g ai/ha
Method in brief: as §4

[10] = system: velvetleaf (Abutilon theophrasti); test: as above; conditions: 1000 g ai/ha
Method in brief: as §4

corn (Zea mays) = test: as above; conditions: 1000 g ai/ha
Method in brief: as §4

[11] = system: wheat (Triticum aestivum); test: as above; conditions: 1000 g ai/ha
Method in brief: as §4

[12] = system: large (Lg) crabgrass (Digitaria sanguinalis); test: as above; conditions: 1000 g ai/ha
Method in brief: as §4

[13] = system: morningglory (Ipomoea spp.); test: as above; conditions: 1000 g ai/ha
Method in brief: as §4

[14] = system: barnyardgrass (Echinochloa crus-galli); test: as above; conditions: 1000 g ai/ha
Method in brief: as §4

Row | SMILES | AMAPA Obsd. (observed effect) ([1]; 0.25 g a.i./ha) | AMAPA Obsd. (observed effect) ([1]; 1 g a.i./ha) | ZEAMD Obsd. (observed effect) (corn (ZEAMD, Zea mays); 0.25 g a.i./ha) | ZEAMD Obsd. (observed effect) (corn (ZEAMD, Zea mays); 1 g a.i./ha) | AMATA Obsd. (observed effect) ([2]; 0.25 g a.i./ha) | AMATA Obsd. (observed effect) ([2]; 1 g a.i./ha) | GLXMA Obsd. (observed effect) ([3]; 0.25 g a.i./ha) | GLXMA Obsd. (observed effect) ([3]; 1 g a.i./ha) | KCHSC Obsd. (observed effect) ([4]; 0.25 g a.i./ha) | KCHSC Obsd. (observed effect) ([4]; 1 g a.i./ha) | Plant response rating, Sedge, Umbrella [5] | Plant response rating, Ducksalad [6] | Plant response rating, Rice (rice (Oryza sativa)) | Plant response rating, Barnyardgrass [7] | Plant response rating (0 to 100 scale), Pigweed ([8]; Postemergence) | Plant response rating (0 to 100 scale), Pigweed ([8]; Preemergence) | Plant response rating (0 to 100 scale), Foxtail, Giant ([9]; Postemergence) | Plant response rating (0 to 100 scale), Foxtail, Giant ([9]; Preemergence) | Plant response rating (0 to 100 scale), Velvetleaf ([10]; Postemergence) | Plant response rating (0 to 100 scale), Velvetleaf ([10]; Preemergence) | further results
1 | CCOC(=O)c1ccccc1S(=O)(=O)NC(=O)Nc1nc(Cl)cc(OC)n1 [Chlorimuron-ethyl, chlorimuron-ethyl] | 65 | 86 | 0 | 33 | 77 | 76 | 0 | 0 | 88 | 97 |  |  |  |  |  |  |  |  |  |  | 
2 | Clc1ccc(NN=C(c2ccccc2)c2c[nH]nc2-c2cc(Cl)cc(Cl)c2)cc1 [Compound 65] |  |  |  |  |  |  |  |  |  |  | 0 | 0 | 0 | 0 | 90 | 80 | 0 | 0 | 90 | 80 | Plant response rating (0 to 100 scale), Corn (corn (Zea mays); Postemergence): 0; Plant response rating (0 to 100 scale), Corn (corn (Zea mays); Preemergence): 0; Plant response rating (0 to 100 scale), Wheat ([11]; Postemergence): 0; Plant response rating (0 to 100 scale), Wheat ([11]; Preemergence): 0; Plant response rating (0 to 100 scale), Crabgrass, Large ([12]; Postemergence): 0; Plant response rating (0 to 100 scale), Crabgrass, Large ([12]; Preemergence): 0; Plant response rating (0 to 100 scale), Morningglory ([13]; Postemergence): 30; Plant response rating (0 to 100 scale), Morningglory ([13]; Preemergence): 0; Plant response rating (0 to 100 scale), Barnyardgrass ([14]; Postemergence): 0; Plant response rating (0 to 100 scale), Barnyardgrass ([14]; Preemergence): 0
3 | N=C(c1ccccc1)c1c[nH]nc1-c1cc(F)cc(F)c1 [Compound 67] |  |  |  |  |  |  |  |  |  |  | 0 | 0 | 0 | 0 | 80 | 100 | 0 | 0 | 90 | 100 | Plant response rating (0 to 100 scale), Corn (corn (Zea mays); Postemergence): 0; Plant response rating (0 to 100 scale), Corn (corn (Zea mays); Preemergence): 0; Plant response rating (0 to 100 scale), Wheat ([11]; Postemergence): 0; Plant response rating (0 to 100 scale), Wheat ([11]; Preemergence): 0; Plant response rating (0 to 100 scale), Crabgrass, Large ([12]; Postemergence): 0; Plant response rating (0 to 100 scale), Crabgrass, Large ([12]; Preemergence): 0; Plant response rating (0 to 100 scale), Morningglory ([13]; Postemergence): 0; Plant response rating (0 to 100 scale), Morningglory ([13]; Preemergence): 0; Plant response rating (0 to 100 scale), Barnyardgrass ([14]; Postemergence): 0; Plant response rating (0 to 100 scale), Barnyardgrass ([14]; Preemergence): 0
4 | CS(=O)(=O)c1ccc(C(=O)C2C(=O)CCCC2=O)c([N+](=O)[O-])c1 [Mesotrione, mesotrione] |  |  |  |  |  |  |  |  |  |  |  |  |  |  |  |  |  |  |  |  | AMAPA Obsd. (observed effect) ([1]; 4 g a.i./ha): 78 and 72; ZEAMD Obsd. (observed effect) (corn (ZEAMD, Zea mays); 4 g a.i./ha): 0; AMATA Obsd. (observed effect) ([2]; 4 g a.i./ha): 79 and 92; GLXMA Obsd. (observed effect) ([3]; 4 g a.i./ha): 64 and 62; KCHSC Obsd. (observed effect) ([4]; 4 g a.i./ha): 79 and 72
5 | COc1cc(OC)nc(NC(=O)NS(=O)(=O)c2ncccc2C(=O)N(C)C)n1 [Nicosulfuron, nicosulfuron] | 3 | 100 | 0 | 0 | 63 | 78 | 0 | 51 | 43 | 89 |  |  |  |  |  |  |  |  |  |  | 
